The subject of this experiment is CCRF-CEM/VCR-1000. Description: MDR-modulating activity as a measure to inhibit P-glycoprotein (PGP) mediated transmembrane transport in human T-lymphoblast cell line CEM vcr 1000 using the daunomycin efflux assay. The experiment is classed as functional, cell-based.

Regarding `C[C@H](O)COc1ccccc1[C@H](C)O`, the concentration giving a half-maximal response (EC50) (usually the concentration at which the effect is half-maximal) came out at 1560 nM.
The molecule `C[C@@H](O)COc1ccccc1[C@@H](C)O` returned an EC50 of 780 nM.
Regarding `C[C@H](O)c1ccccc1OC[C@@H](C)O`, a half-maximal response (EC50) required 580 nM.
The molecule `CCCNC[C@H](O)COc1ccccc1C(=O)CCc1ccccc1` gave an EC50 of 370 nM.
As for `C[C@H](O)COc1ccccc1[C@@H](C)O`, the response was half-maximal at 1400 nM (EC50).
As for `CCCNC[C@@H](O)COc1ccccc1C(=O)CCc1ccccc1`, the half-maximal effective concentration (EC50) came to 260 nM.

Source of the values: ChEMBL document CHEMBL1130779, “Synthesis and pharmacological activity of the stereoisomers of GP-88, a propafenone-type modulator of multidrug resistance” (Bioorg Med Chem Lett, 1998).
